Format in all cases: functional
Experiment [1] concerns Mycobacterium tuberculosis. The experiment is described as follows: Antitubercular activity against isoniazid/rifampicin resistant Mycobacterium tuberculosis 16995 incubated for 7 days by alamar blue assay. The settings on record: Mycobacterium tuberculosis, 16995, 168 h; time 7 day. Background: The colour change of resazurin is a common sign of viable cells or microbes.
In experiment [2] the test system is Mycobacterium tuberculosis. The experiment is described as follows: Antitubercular activity against isoniazid/rifampicin resistant Mycobacterium tuberculosis 16833 incubated for 7 days by alamar blue assay. The settings on record: Mycobacterium tuberculosis, 16833, 168 h; time 7 day.
Experiment [3] deals with Mycobacterium tuberculosis. The experiment is described as follows: Antitubercular activity against isoniazid/streptomycin/rifampicin/ethambutol/p-aminosalicylate/prothionamide/capreomycin resistant Mycobacterium tuberculosis 14862 incubated for 7 days by alamar blue assay. The note with it: Mycobacterium tuberculosis, 14862, 168 h; time 7 day.
Experiment [4] relates to Mycobacterium tuberculosis. The experiment can be described thus: Antitubercular activity against isoniazid/streptomycin/rifampicin/ethambutol/p-aminosalicylate/rifabutin/ofloxacin resistant Mycobacterium tuberculosis 13946 incubated for 7 days by alamar blue assay. The note with it: Mycobacterium tuberculosis, 13946, 168 h; time 7 day.
In experiment [5] the test system is Mycobacterium tuberculosis. The experiment can be described thus: Antitubercular activity against isoniazid/rifampicin resistant Mycobacterium tuberculosis 12525 incubated for 7 days by alamar blue assay. The settings on record: Mycobacterium tuberculosis, 12525, 168 h; time 7 day.

MIC data for 30 compounds are collected here from ChEMBL document CHEMBL5584339, “Design, Synthesis, and Evaluation of the Antitubercular Activity of 5-Phenyl Substituted-5, 6-dihydropyrido[2, 3-d]pyrimidine-4, 7(3H, 8H)-dione Compounds” (J Med Chem, 2024).

SMILES strings stand for the structures. Values after ≈ are worked out from the molar mass of the structure shown.

Regarding `C=CCSc1nc2c(c(=O)[nH]1)C(c1ccc(OC)cc1[N+](=O)[O-])CC(=O)N2` (stereo not given), the MIC in experiment [1] came out at 2 µg/mL (≈ 5.15 µM); in experiment [2], 1 µg/mL (≈ 2.57 µM); in experiment [3], 1 µg/mL (≈ 2.57 µM); in experiment [4] it was 2 µg/mL (≈ 5.15 µM); in experiment [5], 2 µg/mL (≈ 5.15 µM).

Turning to `CCCSc1nc2c(c(=O)[nH]1)[C@@H](c1ccc(OC)cc1[N+](=O)[O-])CC(=O)N2`, the MIC was determined as 0.125 µg/mL (≈ 0.32 µM) in experiment [1]; 0.06 µg/mL (≈ 0.154 µM) in experiment [2]; 0.059 µg/mL (≈ 0.151 µM) in experiment [3]; 0.125 µg/mL (≈ 0.32 µM) in experiment [4]; 0.125 µg/mL (≈ 0.32 µM) in experiment [5].

On to `CCCSc1nc2c(c(=O)[nH]1)C(c1ccc(OC)cc1O)CC(=O)N2` (stereo not given), for which the MIC in experiment [1] came to 4 µg/mL (≈ 11.1 µM); in experiment [2], 1 µg/mL (≈ 2.77 µM); in experiment [3], 4 µg/mL (≈ 11.1 µM); in experiment [4] it was 2 µg/mL (≈ 5.53 µM); in experiment [5] it was 4 µg/mL (≈ 11.1 µM).

Regarding `CCCSc1nc2c(c(=O)[nH]1)[C@H](c1ccc(OC)cc1)CC(=O)N2`, the MIC in experiment [3] was found to be 12.8 µg/mL (≈ 37.1 µM).

`CCC[S+]([O-])c1nc2c(c(=O)[nH]1)[C@@H](c1ccc(OC)cc1[N+](=O)[O-])CC(=O)N2` (stereo not given in full): the MIC in experiment [3] was over 32 µg/mL.

For the compound `C=CCSc1nc2c(c(=O)[nH]1)C(c1ccc(OC)cc1O)CC(=O)N2` (stereo not given), the MIC in experiment [1] was found to be 32 µg/mL (≈ 89 µM); in experiment [2], 8 µg/mL (≈ 22.3 µM); in experiment [3] it was 13.3 µg/mL (≈ 36.9 µM); in experiment [4] it was 8 µg/mL (≈ 22.3 µM); in experiment [5] it was 16 µg/mL (≈ 44.5 µM).

In the case of `CCCSc1nc2c(c(=O)[nH]1)C(c1ccc(OCC)cc1)CC(=O)N2` (stereo not given), the MIC was 1 µg/mL (≈ 2.78 µM) in experiment [1]; 0.5 µg/mL (≈ 1.39 µM) in experiment [2]; 0.25 µg/mL (≈ 0.696 µM) in experiment [3]; 2 µg/mL (≈ 5.56 µM) in experiment [4]; 1 µg/mL (≈ 2.78 µM) in experiment [5].

In turn, `CCCS(=O)(=O)c1nc2c(c(=O)[nH]1)[C@H](c1ccc(OC)cc1)CC(=O)N2` showed an MIC in experiment [3] of over 32 µg/mL.

For the compound `CCCOc1ccc(C2CC(=O)Nc3nc(SCCC)[nH]c(=O)c32)cc1` (stereo not given), the MIC in experiment [1] worked out at 2 µg/mL (≈ 5.36 µM); in experiment [2] it was 0.5 µg/mL (≈ 1.34 µM); in experiment [3], 2 µg/mL (≈ 5.36 µM); in experiment [4], 1 µg/mL (≈ 2.68 µM); in experiment [5] it was 2 µg/mL (≈ 5.36 µM).

`CCCS(=O)(=O)c1nc2c(c(=O)[nH]1)[C@@H](c1ccc(OC)cc1[N+](=O)[O-])CC(=O)N2` yielded an MIC in experiment [3] of over 32 µg/mL.

Turning to `CCCSc1nc2c(c(=O)[nH]1)C(c1ccc(OC)c(N)c1)CC(=O)N2` (stereo not given), the MIC in experiment [1] worked out at 8 µg/mL (≈ 22.2 µM); in experiment [2], 4 µg/mL (≈ 11.1 µM); in experiment [3], 4 µg/mL (≈ 11.1 µM); in experiment [4] it was 16 µg/mL (≈ 44.4 µM); in experiment [5], 8 µg/mL (≈ 22.2 µM).

On to `CCCSc1nc2c(c(=O)[nH]1)C(c1ccc(OC(C)C)cc1)CC(=O)N2` (stereo not given), for which the MIC is 2 µg/mL (≈ 5.36 µM) in experiment [1]; 1 µg/mL (≈ 2.68 µM) in experiment [2]; 2 µg/mL (≈ 5.36 µM) in experiment [3]; 1 µg/mL (≈ 2.68 µM) in experiment [4]; 4 µg/mL (≈ 10.7 µM) in experiment [5].

As to `C=CCSc1nc2c(c(=O)[nH]1)C(c1ccc(OC)c(O)c1)CC(=O)N2` (stereo not given), the MIC in experiment [1] was found to be 16 µg/mL (≈ 44.5 µM); in experiment [2], 4 µg/mL (≈ 11.1 µM); in experiment [3], 15.6 µg/mL (≈ 43.5 µM); in experiment [4], 4 µg/mL (≈ 11.1 µM); in experiment [5] it was 8 µg/mL (≈ 22.3 µM).

Regarding `CCCSc1nc2c(c(=O)[nH]1)[C@@H](c1ccc(OC)cc1)CC(=O)N2`, the MIC in experiment [1] was 0.125 µg/mL (≈ 0.362 µM); in experiment [2] it was 0.06 µg/mL (≈ 0.174 µM); in experiment [3], 0.06 µg/mL (≈ 0.174 µM); in experiment [4] it was 0.125 µg/mL (≈ 0.362 µM); in experiment [5], 0.06 µg/mL (≈ 0.174 µM).

`CCCS(=O)(=O)c1nc2c(c(=O)[nH]1)[C@H](c1ccc(OC)cc1[N+](=O)[O-])CC(=O)N2` yielded an MIC in experiment [3] of over 32 µg/mL.

As to `C=CCSc1nc2c(c(=O)[nH]1)C(c1ccc(OC)cc1)CC(=O)N2` (stereo not given), the MIC in experiment [1] stood at 2 µg/mL (≈ 5.82 µM); in experiment [2], 1 µg/mL (≈ 2.91 µM); in experiment [3] it was 1 µg/mL (≈ 2.91 µM); in experiment [4] it was 1 µg/mL (≈ 2.91 µM); in experiment [5], 2 µg/mL (≈ 5.82 µM).

Take `CCCCSc1nc2c(c(=O)[nH]1)C(c1ccc(OC)cc1)CC(=O)N2` (stereo not given): the MIC in experiment [1] amounted to 2 µg/mL (≈ 5.56 µM); in experiment [2] it was 1 µg/mL (≈ 2.78 µM); in experiment [3] it was 1 µg/mL (≈ 2.78 µM); in experiment [4] it was 2 µg/mL (≈ 5.56 µM); in experiment [5], 2 µg/mL (≈ 5.56 µM).

In turn, `CCC[S+]([O-])c1nc2c(c(=O)[nH]1)[C@@H](c1ccc(OC)cc1)CC(=O)N2` (stereo not given in full) showed an MIC in experiment [3] of over 32 µg/mL.

`CCC[S+]([O-])c1nc2c(c(=O)[nH]1)[C@H](c1ccc(OC)cc1[N+](=O)[O-])CC(=O)N2` (stereo not given in full) gave an MIC in experiment [3] of over 32 µg/mL.

Compound `CCCSc1nc2c(c(=O)[nH]1)[C@H](c1ccc(OC)cc1[N+](=O)[O-])CC(=O)N2` yielded an MIC in experiment [3] of 13.4 µg/mL (≈ 34.4 µM).

`CCCOc1ccc(C2CC(=O)Nc3nc(SCCC)[nH]c(=O)c32)c(O)c1` (stereo not given): the MIC in experiment [1] turned out to be 8 µg/mL (≈ 20.5 µM); in experiment [2], 2 µg/mL (≈ 5.14 µM); in experiment [3], 2 µg/mL (≈ 5.14 µM); in experiment [4] it was 8 µg/mL (≈ 20.5 µM); in experiment [5], 8 µg/mL (≈ 20.5 µM).

Consider `C=CCSc1nc2c(c(=O)[nH]1)C(c1ccc(OCC)cc1)CC(=O)N2` (stereo not given), for which the minimal inhibitory concentration (MIC) turned out to be 4 µg/mL (≈ 11.2 µM) in experiment [1]; 4 µg/mL (≈ 11.2 µM) in experiment [2]; 1 µg/mL (≈ 2.8 µM) in experiment [3]; 4 µg/mL (≈ 11.2 µM) in experiment [4]; 4 µg/mL (≈ 11.2 µM) in experiment [5].

In the case of `CCCSc1nc2c(c(=O)[nH]1)C(c1ccc(OC)c(O)c1)CC(=O)N2` (stereo not given), the MIC in experiment [1] stood at 8 µg/mL (≈ 22.1 µM); in experiment [2] it was 4 µg/mL (≈ 11.1 µM); in experiment [3], 8 µg/mL (≈ 22.1 µM); in experiment [4], 4 µg/mL (≈ 11.1 µM); in experiment [5] it was 8 µg/mL (≈ 22.1 µM).

Take `C=CCSc1nc2c(c(=O)[nH]1)C(c1ccc(OCCC)cc1)CC(=O)N2` (stereo not given): the MIC in experiment [1] was 4 µg/mL (≈ 10.8 µM); in experiment [2] it was 1 µg/mL (≈ 2.69 µM); in experiment [3], 4 µg/mL (≈ 10.8 µM); in experiment [4], 1 µg/mL (≈ 2.69 µM); in experiment [5], 4 µg/mL (≈ 10.8 µM).

The compound `CCC[S+]([O-])c1nc2c(c(=O)[nH]1)[C@H](c1ccc(OC)cc1)CC(=O)N2` (stereo not given in full) returned an MIC in experiment [3] of over 32 µg/mL.

In the case of `CCCS(=O)(=O)c1nc2c(c(=O)[nH]1)[C@@H](c1ccc(OC)cc1)CC(=O)N2`, the MIC in experiment [3] was over 32 µg/mL.

As to `CCCSc1nc2c(c(=O)[nH]1)C(c1ccc(OC)cc1[N+](=O)[O-])CC(=O)N2` (racemic), the MIC in experiment [1] stood at 0.5 µg/mL (≈ 1.28 µM); in experiment [2], 0.25 µg/mL (≈ 0.64 µM); in experiment [3], 0.25 µg/mL (≈ 0.64 µM); in experiment [4], 1 µg/mL (≈ 2.56 µM); in experiment [5], 0.5 µg/mL (≈ 1.28 µM).

Take `CCCSc1nc2c(c(=O)[nH]1)C(c1ccc(OC)cc1)CC(=O)N2` (racemic): the MIC in experiment [1] is 0.5 µg/mL (≈ 1.45 µM); in experiment [2] it was 0.25 µg/mL (≈ 0.724 µM); in experiment [3] it was 0.25 µg/mL (≈ 0.724 µM); in experiment [4] it was 0.25 µg/mL (≈ 0.724 µM); in experiment [5], 0.5 µg/mL (≈ 1.45 µM).

With `NNC(=O)c1ccncc1` [ISONIAZID], the MIC in experiment [1], in experiment [2], in experiment [3], in experiment [4] and in experiment [5] was over 10 µg/mL each time.

Take `CO[C@H]1/C=C/O[C@@]2(C)Oc3c(C)c(O)c4c(O)c(c(/C=N/N5CCN(C)CC5)c(O)c4c3C2=O)NC(=O)/C(C)=C\C=C\[C@H](C)[C@H](O)[C@@H](C)[C@@H](O)[C@@H](C)[C@H](OC(C)=O)[C@@H]1C` [RIFAMPIN]: the MIC in experiment [1], in experiment [2], in experiment [3], in experiment [4] and in experiment [5] was over 10 µg/mL throughout.

One may read the MIC as the lowest concentration that inhibits growth of the organism. Low values mean greater potency, high ones weaker potency.
